Test results published in paper PMC3062530, “A Novel Mechanism of Programmed Cell Death in Bacteria by Toxin–Antitoxin Systems Corrupts Peptidoglycan Synthesis” (PLoS Biology, 2011).

Experiments:
[1] = molecular target: T1, MurA (Escherichia coli, UniProt P0A749); assay: coupled phosphate-release fluorescence assay (7-methylguanosine / purine nucleoside phosphorylase), global fit; type: biochemical; conditions: competitive with UNAG; 1 mM phosphoenolpyruvate, pH 7.5, 50 mM NaCl
T1 construct: purified enzyme

[2] = molecular target: T1, MurA; assay: as above; type: biochemical; conditions: 1 mM phosphoenolpyruvate, pH 7.5, 50 mM NaCl; global fit with UNAG-3P inhibition

T1 sequence (P0A749 whole entry): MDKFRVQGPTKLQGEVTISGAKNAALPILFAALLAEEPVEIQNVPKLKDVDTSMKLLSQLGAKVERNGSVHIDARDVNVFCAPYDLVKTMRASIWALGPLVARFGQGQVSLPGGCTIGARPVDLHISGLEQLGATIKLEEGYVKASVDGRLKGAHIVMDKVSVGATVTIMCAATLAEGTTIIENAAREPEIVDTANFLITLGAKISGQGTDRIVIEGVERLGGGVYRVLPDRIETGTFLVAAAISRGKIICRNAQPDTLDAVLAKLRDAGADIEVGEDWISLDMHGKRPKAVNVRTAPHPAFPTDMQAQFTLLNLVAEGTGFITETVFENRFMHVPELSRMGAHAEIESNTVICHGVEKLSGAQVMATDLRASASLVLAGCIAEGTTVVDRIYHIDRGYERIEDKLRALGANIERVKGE

For CC(=O)N[C@H]1[C@@H](OP(=O)(O)OP(=O)(O)OC[C@H]2O[C@@H](n3ccc(=O)[nH]c3=O)[C@H](O)[C@@H]2O)O[C@H](CO)[C@@H](O)[C@@H]1OP(=O)(O)O [UNAG-3P], the Ki [1] was 7 µM.
With CC(=O)N[C@H]1[C@@H](OP(=O)(O)OP(=O)(O)OC[C@H]2O[C@@H](n3ccc(=O)[nH]c3=O)[C@H](O)[C@@H]2O)O[C@H](CO)[C@@H](O)[C@@H]1O [UNAG] the Km [2] was 15 µM.
